Test results reported in patent US20250057928A1, “VACCINE COMPOSITION FOR INDUCING ANTI-IL-23 ANTIBODY” (OSAKA UNIVERSITY, priority 2021, published 2025).
Where no end group is shown, it is not given here.

Tests used:
[1] = test system: recombinant mouse IL-23 protein (rmIL-23); assay: Binding of mouse antiserum to rmIL-23, ELISA; settings: antiserum of BALB/c mice
Description: […] […] Specifically, a 96-well plate immobilized with an epitope peptide dissolved at 10 μg/mL in carbonate buffer was blocked with 5% skim milk/PBS, and then serum serially diluted with 5% skim milk/PBS was added, and the mixture was left standing at 4° C. overnight. After washing the wells with PBS-T, HRP-labeled anti-mouse IgG antibody (GE Healthcare) diluted with 5% skim milk/PBS was added and the mixture was shaken at room temperature for 3 hr. After washing the wells with PBS-T, TMB solution (SIGMA) was added, the wells were allowed to stand for 30 min in the dark, the reaction was stopped by adding 0.5M H2SO4, and the absorbance at 450 nm was measured using a plate reader. The serum dilution rate that gave 1/2 (OD=1.75) of the maximum absorbance was defined as the antibody titer, and the geometric mean titer: GMT was calculated from the individual values. Binding to IL-23 protein was measured by the ELISA method in the same manner as the antibody titer, using rmIL-23 (Antibodies-online GmbH) as the solid-phased antigen and goat serum for blocking.
AJP001 conjugated peptide (SEQ ID NO: 2) was dissolved in physiological saline and intradermally administered to BALB/c mice (female, 6-week-old, N=6) at 1 mg/body 3 times at two-week intervals, and blood was collected every 2 weeks until 8 weeks. […]

[2] = test system: IL-17 production when mouse splenocytes were stimulated with rhIL-23; assay: Neutralization activity of IgG purified from monkey antiserum: IL-17 production of mouse splenocytes stimulated with rhIL-23; format: cell-based; settings: 300 μg/mL of IgG derived from monkey antiserum (6 weeks)
Description: AJP001 conjugated peptide (SEQ ID NOs: 6-37) was dissolved in physiological saline, mixed with an equal amount of 2% Alhydrogel (invivogen), and this was intradermally administered to BALB/c mice (female, 6-week-old, N=5-6) at 0.5 mg/body 3 times at two-week intervals. Blood was collected before administration and at the time point of 6 weeks after initial administration, and the antibody titer (GMT) to each epitope sequence and binding ability to recombinant human IL-23 protein (rhIL-23) (Peprotech) were measured by the ELISA method (same method as in Example 1). The binding to rhIL-23 was evaluated by a binding ratio to normal serum by calculating the ratio of the absorbance of a well added with normal mouse serum to the absorbance of a well added with antiserum derived from a mouse administered with each AJP001 conjugated peptide (SEQ ID NOs: 6-37). In addition, the neutralization activity of mouse antiserum was evaluated using an action on IL-17 production in rhIL-23 stimulated mouse splenocyte as an index. […]
Then, IgG was purified using Protein G HP spin Trap (GE Healthcare) from the monkey antiserum obtained 6 weeks after the initial administration, and the action on IL-17 production when mouse splenocytes were stimulated with rhIL-23 was evaluated (same method as in Example 5).

[3] = test system: recombinant human IL-23 protein (rhIL-23); assay: Binding of mouse antiserum to rhIL-23, ELISA; settings: antiserum of BALB/c mice, 1 mg/body 3 times, no adjuvant; 6 weeks
Description: AJP001 conjugated peptide (SEQ ID NOs: 6-37) was dissolved in physiological saline, mixed with an equal amount of 2% Alhydrogel (invivogen), and this was intradermally administered to BALB/c mice (female, 6-week-old, N=5-6) at 0.5 mg/body 3 times at two-week intervals. Blood was collected before administration and at the time point of 6 weeks after initial administration, and the antibody titer (GMT) to each epitope sequence and binding ability to recombinant human IL-23 protein (rhIL-23) (Peprotech) were measured by the ELISA method (same method as in Example 1). The binding to rhIL-23 was evaluated by a binding ratio to normal serum by calculating the ratio of the absorbance of a well added with normal mouse serum to the absorbance of a well added with antiserum derived from a mouse administered with each AJP001 conjugated peptide (SEQ ID NOs: 6-37). In addition, the neutralization activity of mouse antiserum was evaluated using an action on IL-17 production in rhIL-23 stimulated mouse splenocyte as an index. The spleen of normal BALB/c mouse (female, 5-week-old, N=3) was triturated using a syringe barrel and a cell strainer and washed with and suspended in HBSS (−). Erythrocytes were then removed using ACK Buffer (Thermo fisher scientific), and splenocytes were isolated. The splenocytes were prepared to 2.5×10^6 cells/mL with 10% FBS/1% penicillin/streptomycin/4 ng/mL rmIL-2-containing RPMI1640 medium (culture medium), and seeded in a 96 well plate at 100 μl/well. The antiserum (final concentration 15-fold) of the mice administered with each AJP001 conjugated peptide and rhIL-23 (final concentration 10 ng/ml) were added to the culture medium, reacted at 37° C. for 2 hr, added at 100 μL/well to a 96-well plate seeded with splenocytes, and cultured for 3 days in a 37° C./5% CO2 incubator. An untreated well and a control well to which normal mouse serum and rhIL-23 were added were provided. IL-17A/F in the culture supernatant was measured using Mouse IL-17A/F ELISA kit (R&D systems), the proportion (%) of IL-17 to normal serum was calculated from the IL-17 concentrations of untreated well (A), control well (B), and well (C) to which antiserum of the mice administered with each AJP001 conjugated peptide was added and according to the following formula, and the neutralization activity was evaluated.
AJP001 conjugated peptide (SEQ ID NO: 6) was dissolved in physiological saline and intradermally administered to BALB/c mice (female, 6-week-old, N=6) at 1 mg/body 3 times at two-week intervals, and blood was collected every 2 weeks until 8 weeks. The antibody titer (GMT) of all the collected sera and the binding ability to rhIL-23 of the serum at 6 weeks were measured by the ELISA method. In FIG. 5, “*” means P<0.05.

rhIL-23 = assay: Binding of monkey antiserum to rhIL-23, ELISA; parameters: species or system human; settings: monkey antiserum 6 weeks after the initial administration
Description: AJP001 conjugated peptide (SEQ ID NO: 6) was dissolved in physiological saline and subcutaneously administered to Macaca fascicularis (female, […], N=4) at 5 mg/body 3 times at two-week intervals. Blood was collected every two weeks from the first day of administration until week 16, and the antibody titer (GMT) and binding to IL-23 of the serum at each time point were measured by the ELISA method (same method as in Example 1; the secondary antibody used was Anti-Monkey IgG (Abcam)). In FIG. 7, “*” means P<0.05.

BALB/c mice = assay: rhIL-23-induced mouse auricle inflammation model; format: in vivo; settings: 1 mg/body 3 times
Description: AJP001 conjugated peptide (SEQ ID NO: 6) was dissolved in physiological saline and administered to BALB/c mice (female, 6-week-old, N=8) at 1 mg/body 3 times at two-week intervals. At the time point of 6 weeks after the initial administration, rhIL-23 was administered intradermally to the ear to induce inflammation. rhIL-23 was administered every day and 4 times in total. As a control group, an rhIL-23 group without administration of AJP001 conjugated peptide was provided. Auricular thickness was measured using a thickness gauge at the time points of 3 days and 4 days after rhIL-23 administration. In addition, the mRNA expression of IL-17A, IL-22, IL-1β, LCN-2, and CXCL-2 in the auricle was measured. The results of efficacy evaluation of the AJP001 conjugated peptide (SEQ ID NO: 6) on auricular thickness and mRNA expression are shown in FIG. 6. In FIG. 6, “*” means that it is significant (P<0.05) compared with “rhIL-23”. “#” means that it is significant (P<0.05) compared with “Normal (normal group)”.

## SEQ ID NO 2: AJP001-Ahx-B cell epitope peptide conjugate; epitope SSSQQWQR (mouse 152-159) (not fully specified (N-terminus); listed as Mus musculus)
[1]; 0.5 mg/body twice, 5 weeks after initial administration
  binding to rmIL-23: confirmed
[1]; 1 mg/body 3 times, 6 weeks
  binding ability to rmIL-23: contained antibodies that bind to rmIL-23

## SEQ ID NO 6: AJP001-Ahx-B cell epitope peptide conjugate; epitope SPSQPWQR (human 151-158) (not fully specified (N-terminus); listed as Homo sapiens)
[2]
  IL-17 production: suppressed
[3]
  binding ability to rhIL-23: confirmed
rhIL-23
  binding ability to rhIL-23: showed binding ability
BALB/c mice; rhIL-23 to ear
  mRNA expression of IL-17A, IL-22, IL-1β, LCN-2, and CXCL-2 in auricle: suppressive action
BALB/c mice; rhIL-23 to ear daily 4 times from week 6, day 3 and 4
  increase in auricular thickness: suppressive action
